Data taken from US20240277653A1, “USE OF FURANCARBOXYLIC ACIDS IN THE PREPARATION OF ADDITIVES FOR ANIMAL FEEDS” (ANIPHA TECHNOLOGIES PTY LTD, priority 2021, published 2024).

How the values were obtained:
[1] = test system: weaned piglets; experiment: Effects of furancarboxylic acids on performance of weaned piglets; assay type: in vivo, Duroc-landrace-yorkshire swine; details: 65-day-old pigs, basal diet comprising 2000 ppm test article, 28 days, mean
From the text: A total of 120 65-day-old Duroc-landrace-yorkshire swine with similar body weight were randomly divided into 4 groups, each with 3 replicates, half male and female, […]. The pigpen and utensils were disinfected before the test. During the period of test, pigs were kept in separate pens under the same feeding and management conditions. During the test, the test pigs were fed with food and water ad libitum, and were fed twice a day. The test groups are shown in Table 1, among which, group I was the control group, and was only fed with the basal diet; test groups II, III and IV were fed with the basal diet comprising 2000 ppm of a compound of furancarboxylic acids shown in Table 1, respectively. […] The test lasted 28 days, and the performances of the test pigs, for example, the average daily feed intake (ADFI, g/d*pig), average daily weight gain (ADG, g/d*pig) and feed conversion ratio (FCR) of each pig were counted.

[2] = test system: yellow-feathered broilers; experiment: Use of furancarboxylic acids in a feed for chicken (broiler performance); assay type: in vivo; details: 1-day-old broilers, basal diet comprising 1000 ppm test article, 20 days, mean
From the text: This experiment adopted a single-factor randomization design. 480 1-day-old broilers with an average body weight of 50 g were selected and randomly divided into 4 groups, with 6 replicates in each group, half male and female, 20 yellow-feathered broilers per replicate. The chicken house and utensils were disinfected before the test. During the period of test, broilers were kept in cages under the same feeding and management conditions. The basal diet is mainly based on corn-soybean meal, and other antioxidants and growth promoters are not added during the whole feeding. The test groups are shown in Table 2, among which, group I was the control group, and was only fed with the basal diet; test groups II, III and IV were fed with the basal diet comprising 1000 ppm of a compound of furancarboxylic acids shown in Table 2, respectively. The test lasted 20 days, and the test broilers were fed with food and water ad libitum, and were fed twice a day. Test broilers in each replicate were weighed at 21 days of age (stop feeding for 12 hours and keep water). The feed consumption of the test broilers was counted, and the average daily feed intake (ADFI, g/d*broiler), average daily weight gain (ADG, g/d*broiler) and feed conversion ratio (FCR) of each test broiler were calculated.

[3] = test system: grass carp fingerlings; experiment: Use of furancarboxylic acids in a feed for fish (grass carp growth-promoting test); assay type: in vivo; details: 500 ppm in test feed, 8 weeks; for Weight gain: 100×(final−initial)/initial weight; for FCR (feed conversion rate): feed intake/weight gain
Protocol: Test fish: The test fish used were the healthy and lively grass carp fingerlings of the same year and were reared in a large cage (4×2×1.5 m^3) for 4 weeks before being used for formal breeding tests. The experimental system was a small floating cage (with size of 1.1×1.1×1.1 m^3); each small cage is equipped with a bubbling head, and bubbling 24 hours a day. The small cages and the temporary cages were placed in a test facility, a 3500 m^2 pond, the pond depth was about 1.5 m, and the pond water was fully aerated bottom water. During the test, 240 grass carps that had been starved for 1 day were randomly divided into 3 groups, each group was provided with 4 replicates, and 20 fish were placed in each replicate. Each replicate was weighed and placed into 12 cages, respectively fed with a test feed supplemented with a compound of furancarboxylic acids.
Test feed: The test feed was prepared according to the formula in Table 3, and 500 ppm of a compound of furancarboxylic acids were added to different test groups according to Table 4. The feedstuff used was ultrafinely grinded and then passed through the Jiangsu Muyang extruder to make a floating extruded feed with a particle size of 3 mm. The mold release temperature was 130° C., and 3% soybean oil was sprayed externally through the oil injection equipment, and sealed in a cool place for use.
Procedures: The experiment adopts artificial food restriction feeding, the feeding amount is adjusted once a week, the feeding level (based on the initial body weight) of each group is exactly the same, feeding twice a day (at 7:30 am and 15:00 pm), and the total feeding amount is 580 g per replicate. The test lasted 8 weeks. The water quality was monitored regularly during the test. The water temperature was 26.88±3.08° C., with DO>5.0 mg O L^−1, pH 7.8, ammonia nitrogen <0.50 mg N L^−1, and nitrite nitrogen <0.05 mg N L^−1 during the whole breeding process.
Parameter statistics: During the test, the fish in each cage were weighed as a whole 1 day of stopping feeding, and their weight gain (WG, %), feed conversion rate (FCR) and survival rate (SR, %) were calculated as follows:
Weight gain (WG, %)=100×(average final weight−average initial weight)/average initial weight;
Feed conversion rate (FCR)=feed intake/weight gain of fish;
Survival rate (SR, %)=100×number of fish at the end of the experiment/number of fish at the beginning of the experiment.

Row | Compound | ADFI (average daily feed intake) [1] [g/d*pig] | ADG (average daily weight gain) [1] [g/d*pig] | FCR (feed conversion ratio) [1] | ADFI (average daily feed intake) [2] [g/d*broiler] | ADG (average daily weight gain) [2] [g/d*broiler] | FCR (feed conversion ratio) [2] | Average final weight [3] [g] | SR (survival rate) [3] [%] | Weight gain [3] [%] | FCR (feed conversion rate) [3]
1 | O=C(O)c1coc(C(=O)O)c1 [2,4-Furandicarboxylic acid] | 1263 | 507 | 2.490 | 36.5 | 17.4 | 2.10 |  |  |  | 
2 | O=C(O)c1ccco1 [2-Furancarboxylic acid] | 1274 | 512 | 2.489 | 35.2 | 16.9 | 2.08 | 586.87 | 82.50 | 134.96 | 1.48
3 | O=C(O)c1ccoc1 [3-Furancarboxylic acid] | 1240 | 498 | 2.491 | 34.0 | 16.4 | 2.07 | 589.33 | 83.75 | 138.98 | 1.48
